In patent US9684238B2, “Fluorene-type compound, photopolymerization initiator comprising said fluorene-type compound, and photosensitive composition containing said photopolymerization initiator” (TOKYO OHKA KOGYO CO., LTD., priority 2012, dated 2017):

What was measured:
[1] = Evaluation 3: 20-μm pattern line width of black photosensitive composition; details: black composition (carbon black, cardo resin), initiator 0.4 mmol
Procedure, shortened: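 Composition spin-coated on glass to 1.0 μm dry thickness, dried 90 °C for 10 min, exposed at 10–80 mJ/cm^2 via high-pressure mercury lamp through 20 μm negative mask, developed in 0.1 wt % TMAH, rinsed. Line width of remaining cured film measured; larger width means higher sensitivity.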

[2] = Evaluation 1: 20-μm pattern line width of transparent photosensitive composition; details: transparent composition, initiator 0.4 mmol

CCCC1(CCC)c2cc(C(=O)c3ccccc3C)ccc2-c2ccc(/C(C)=N/OC(C)=O)cc21 [Compound 4]
20-μm pattern line width ([1]; 10 mJ/cm^2): 19.4 | 20-μm pattern line width ([1]; 20 mJ/cm^2): 20.0 | 20-μm pattern line width ([1]; 40 mJ/cm^2): 21.3 | 20-μm pattern line width ([1]; 60 mJ/cm^2): 22.1 | 20-μm pattern line width ([1]; 80 mJ/cm^2): 22.4 | 20-μm pattern line width ([2]; exposure energy quantity 10 mJ/cm^2): 19.4 | 20-μm pattern line width ([2]; exposure energy quantity 20 mJ/cm^2): 20.0 | 20-μm pattern line width ([2]; exposure energy quantity 40 mJ/cm^2): 21.3 | 20-μm pattern line width ([2]; exposure energy quantity 60 mJ/cm^2): 22.1 | 20-μm pattern line width ([2]; exposure energy quantity 80 mJ/cm^2): 22.4
